Where two headings read alike, the source gives them in different places.
Assays:
Format in all cases: cell-based
[1] = system: Escherichia coli TK-1747 strain producing CTX-M-15 (strain A); assay: MIC of test compound alone or with β-lactamase inhibitor at 4 μg/mL
Procedure: (§1) By using a broth microdilution method, the combinational effect of a test compound and a β-lactamase inhibitor was evaluated.
(§2) The evaluation test for antibacterial activity was performed in the same manner as in Test Example 1.
Escherichia coli TK-1747 strain producing CTX-M-15 (hereinafter, called strain A),

[2] = system: Klebsiella pneumoniae Y-1020 strain producing KPC-3 and SHV-12 (strain B); assay: as above; settings: for MIC: Strain B; for antibacterial activity in combination with a β-lactamase inhibitor versus without: for all the bacterial strains (strains A to E), summary of Tables 43 to 47
Procedure: as §1, §2

[3] = system: Klebsiella pneumoniae Y-1133 strain producing NDM-1, OXA-48, and CTX-M-15 (strain C); assay: as above
Procedure: as §1, §2
Klebsiella pneumoniae Y-1133 strain producing NDM-1, OXA-48, and CTX-M-15 (hereinafter, called strain C),
(§3) An antibacterial activity evaluation test was performed in the same manner as in Test Example 6.
(§4) As the bacterial strain, the strains B, C, and D producing β-lactamase and a Klebsiella pneumoniae Y-1069 strain (hereinafter, called strain F) producing OXA-48 and CTX-M-15 were used.

[4] = system: Escherichia coli TK-3113 strain producing IMP-8 (strain D); assay: as above
Procedure: as §1, §2
Escherichia coli TK-3113 strain producing IMP-8 (hereinafter, called strain D),
as §3, §4

[5] = system: Escherichia coli TK-1765 strain producing CMY-2 (strain E); assay: as above
Procedure: as §1, §2
Escherichia coli TK-1765 strain producing CMY-2 (hereinafter, called strain E)

[6] = system: AmpC-derepressed Pseudomonas aeruginosa mutant strain (S-3028); assay: Antibacterial activity evaluation test, MIC by broth microdilution (CLSI); settings: Pseudomonas aeruginosa S-3028
Procedure, shortened: (§5)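 MIC (μg/mL) = lowest drug concentration showing no visible bacterial growth after 16–20 h at 35° C. in cation-adjusted Mueller Hinton broth. Inoculum: agar-grown cells at 0.5 McFarland, diluted 10-fold.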

[7] = system: CTX-M-15-containing Escherichia coli strain (TK-1747); assay: as above; settings: Escherichia coli TK-1747
Procedure, shortened: as §5

[8] = system: GES-19 and GES-20-containing Pseudomonas aeruginosa strain (S-3759); assay: as above; settings: Pseudomonas aeruginosa S-3759
Procedure, shortened: as §5

[9] = system: IMP-1-containing Pseudomonas aeruginosa strain (S-2838); assay: as above; settings: Pseudomonas aeruginosa S-2838
Procedure, shortened: as §5

[10] = system: KPC-2-containing Klebsiella pneumoniae strain (Y-995); assay: as above; settings: Klebsiella pneumoniae Y-995
Procedure, shortened: as §5

[11] = system: NDM-1-containing Klebsiella pneumoniae strain (Y-1007); assay: as above; settings: Klebsiella pneumoniae Y-1007
Procedure, shortened: as §5

[12] = system: OXA-48-containing Klebsiella pneumoniae strain (Y-1062); assay: as above; settings: Klebsiella pneumoniae Y-1062
Procedure, shortened: as §5

[13] = system: Pseudomonas aeruginosa strain ATCC27853; assay: as above; settings: Pseudomonas aeruginosa, ATCC27853
Procedure, shortened: as §5

[14] = system: VIM-2-containing Pseudomonas aeruginosa strain (S-3779); assay: as above; settings: Pseudomonas aeruginosa S-3779
Procedure, shortened: as §5

[15] = system: Klebsiella pneumoniae Y-1069 strain producing OXA-48 and CTX-M-15 (strain F); assay: MIC of test compound alone or with β-lactamase inhibitor at 4 μg/mL; settings: for MIC: Klebsiella pneumoniae, Strain F; for antibacterial activity in combination with a β-lactamase inhibitor versus without: for all the bacterial strains (strains B, C, D and F), summary of Tables 51 and 52
Procedure: as §2, §3, §4

[16] = test compound alone (β-lactamase inhibitor N/A)
[17] = Klebsiella pneumoniae, test compound alone (β-lactamase inhibitor N/A), read-out: MIC
[18] = Klebsiella pneumoniae, with AVI at 4 μg/mL, read-out: MIC
[19] = Klebsiella pneumoniae, with CVA at 4 μg/mL, read-out: MIC
[20] = Klebsiella pneumoniae, with NAC at 4 μg/mL, read-out: MIC
[21] = Klebsiella pneumoniae, with ZID at 4 μg/mL, read-out: MIC
[22] = Klebsiella pneumoniae, with ZID at 4 μg/mL
[23] = Escherichia coli, test compound alone (β-lactamase inhibitor N/A)
[24] = Escherichia coli, with NAC at 4 μg/mL
[25] = Escherichia coli, with ZID at 4 μg/mL

## Nc1nc(/C(=N/OC2(C(=O)O)CC2)C(=O)N[C@@H]2C(=O)N3C[C@@](C(=O)O)(N4CCN(NC(=O)C(=O)c5ccc(O)c(O)c5Cl)C4=O)S[C@H]23)cs1 [Compound E]
[1]; AVI added at 4 μg/mL
  MIC: <0.015 µg/mL
[1]; CVA added at 4 μg/mL
  MIC: <0.015 µg/mL
[1]; NAC added at 4 μg/mL
  MIC: <0.015 µg/mL
[1]; SBT added at 4 μg/mL
  MIC: <0.015 µg/mL
[1]; TAZ added at 4 μg/mL
  MIC: <0.015 µg/mL
[1]; ZID added at 4 μg/mL
  MIC: <0.015 µg/mL
[1]; [16]
  MIC: 0.06 µg/mL
[2]; AVI added at 4 μg/mL
  MIC: 0.25 µg/mL
[2]; NAC added at 4 μg/mL
  MIC: <0.015 µg/mL
[2]; VAB added at 4 μg/mL
  MIC: 1 µg/mL
[2]; ZID added at 4 μg/mL
  MIC: <0.015 µg/mL
[2]; [16]
  MIC: 4 µg/mL
[2]
  antibacterial activity in combination with a β-lactamase inhibitor versus without: higher antibacterial activity
[3]; AVI added at 4 μg/mL
  MIC: 0.12 µg/mL
[3]; NAC added at 4 μg/mL
  MIC: <0.015 µg/mL
[3]; ZID added at 4 μg/mL
  MIC: <0.015 µg/mL
[3]; [16]
  MIC: 1 µg/mL
[4]; AVI added at 4 μg/mL
  MIC: 0.12 µg/mL
[4]; NAC added at 4 μg/mL
  MIC: <0.015 µg/mL
[4]; ZID added at 4 μg/mL
  MIC: <0.015 µg/mL
[4]; [16]
  MIC: 0.25 µg/mL
[5]; [16]
  MIC: 1 µg/mL
[5]; with AVI at 4 μg/mL
  MIC: 0.06 µg/mL
[5]; with SBT at 4 μg/mL
  MIC: 0.5 µg/mL
[5]; with TAZ at 4 μg/mL
  MIC: 0.25 µg/mL
[5]; with VAB at 4 μg/mL
  MIC: 0.12 µg/mL

## CC(C)(O/N=C(\C(=O)N[C@@H]1C(=O)N2C[C@@](C(=O)O)(N3CCN(NC(=O)C(=O)c4ccc(O)c(O)c4Cl)C3=O)S[C@H]12)c1nc(N)sc1Cl)C(=O)O [Compound D]
[2]; AVI added at 4 μg/mL
  MIC: 0.25 µg/mL
[2]; NAC added at 4 μg/mL
  MIC: <0.015 µg/mL
[2]; ZID added at 4 μg/mL
  MIC: <0.015 µg/mL
[2]; [16]
  MIC: 2 µg/mL
[2]
  antibacterial activity in combination with a β-lactamase inhibitor versus without: higher antibacterial activity
[3]; AVI added at 4 μg/mL
  MIC: 0.12 µg/mL
[3]; NAC added at 4 μg/mL
  MIC: <0.015 µg/mL
[3]; ZID added at 4 μg/mL
  MIC: <0.015 µg/mL
[3]; [16]
  MIC: 0.5 µg/mL
[4]; AVI added at 4 μg/mL
  MIC: 0.5 µg/mL
[4]; NAC added at 4 μg/mL
  MIC: 0.06 µg/mL
[4]; ZID added at 4 μg/mL
  MIC: 0.03 µg/mL
[4]; [16]
  MIC: 1 µg/mL
[5]; [16]
  MIC: 0.5 µg/mL
[5]; with AVI at 4 μg/mL
  MIC: 0.03 µg/mL
[5]; with CVA at 4 μg/mL
  MIC: 0.25 µg/mL
[5]; with SBT at 4 μg/mL
  MIC: 0.25 µg/mL
[5]; with TAZ at 4 μg/mL
  MIC: 0.06 µg/mL
[5]; with VAB at 4 μg/mL
  MIC: 0.12 µg/mL

## CO/N=C(\C(=O)N[C@@H]1C(=O)N2C(C(=O)O)=C(COC(C)=O)CS[C@H]12)c1csc(N)n1 [CTX, cefotaxime sodium, reference compound]
[1]; Escherichia coli, test compound alone (β-lactamase inhibitor N/A), read-out: MIC
  MIC: > 128 µg/mL

## C=C(O/N=C(\C(=O)NC1C(=O)N2C[C@@](C(=O)O)(N3CCN(NC(=O)C(=O)c4ccc(O)c(O)c4Cl)C3=O)S[C@H]12)c1csc(N)n1)C(=O)O (stereo partly drawn) [Example 144, (3R,5R,6R)-6-((Z)-2-(2-aminothiazol-4-yl)-2-(((1-carboxyvinyl)-oxy)imino)acetamido)-3-(3-(2-(2-chloro-3,4-dihydroxyphenyl)-2-oxoacetamido)-2-oxo-imidazolidin-1-yl)-7-oxo-4-thia-1-azabicyclo-[3.2.0]heptane-3-car-boxylic acid]
[6]
  Antibacterial activity (MIC) Pseudomonas aeruginosa S-3028: < 0.12 µg/mL
[7]
  Antibacterial activity (MIC) Escherichia coli TK-1747: < 0.12 µg/mL
[8]
  Antibacterial activity (MIC) Pseudomonas aeruginosa S-3759: 1 µg/mL
[9]
  Antibacterial activity (MIC) Pseudomonas aeruginosa S-2838: 32 µg/mL
[10]
  Antibacterial activity (MIC) Klebsiella pneumoniae Y-995: < 0.12 µg/mL
[11]
  Antibacterial activity (MIC) Klebsiella pneumoniae Y-1007: < 0.12 µg/mL
[12]
  Antibacterial activity (MIC) Klebsiella pneumoniae Y-1062: 0.5 µg/mL
[13]
  Antibacterial activity (MIC) Pseudomonas aeruginosa ATCC 27853: 0.25 µg/mL
[14]
  Antibacterial activity (MIC) Pseudomonas aeruginosa S-3779: 0.25 µg/mL
[2]; [17]
  MIC: 1 µg/mL
[2]; [18]
  MIC: 0.25 µg/mL
[2]; [19]
  MIC: 0.25 µg/mL
[2]; [20]
  MIC: < 0.015 µg/mL
[2]; [21]
  MIC: 0.03 µg/mL
[3]; [22]
  MIC: < 0.015 µg/mL
[4]; [23]
  MIC: 0.5 µg/mL
[4]; Escherichia coli, with AVI at 4 μg/mL
  MIC: 0.25 µg/mL
[4]; Escherichia coli, with CVA at 4 μg/mL
  MIC: 0.25 µg/mL
[4]; [24]
  MIC: < 0.015 µg/mL
[4]; Escherichia coli, with SBT at 4 μg/mL
  MIC: 0.25 µg/mL
[4]; Escherichia coli, with TAZ at 4 μg/mL
  MIC: 0.125 µg/mL
[4]; [25]
  MIC: < 0.015 µg/mL
[15]; [16]
  MIC: 4 µg/mL
[15]; with AVI at 4 μg/mL
  MIC: 0.25 µg/mL
[15]; with CVA at 4 μg/mL
  MIC: 2 µg/mL
[15]; with NAC at 4 μg/mL
  MIC: 0.06 µg/mL
[15]; with SBT at 4 μg/mL
  MIC: 2 µg/mL
[15]; with TAZ at 4 μg/mL
  MIC: 2 µg/mL
[15]; with ZID at 4 μg/mL
  MIC: 0.03 µg/mL
[15]
  antibacterial activity in combination with a β-lactamase inhibitor versus without: higher antibacterial activity

## CC(C)(O/N=C(\C(=O)NC1C(=O)N2C[C@@](C(=O)O)(N3CCN(NC(=O)C(=O)c4c(F)cc(O)c(O)c4Cl)C3=O)S[C@H]12)c1csc(N)n1)C(=O)O (some centres unmarked) [Example 143]
[6]
  Antibacterial activity (MIC) Pseudomonas aeruginosa S-3028: 0.12 µg/mL
[7]
  Antibacterial activity (MIC) Escherichia coli TK-1747: 0.12 µg/mL
[8]
  Antibacterial activity (MIC) Pseudomonas aeruginosa S-3759: 1 µg/mL
[9]
  Antibacterial activity (MIC) Pseudomonas aeruginosa S-2838: 0.5 µg/mL
[10]
  Antibacterial activity (MIC) Klebsiella pneumoniae Y-995: 0.12 µg/mL
[11]
  Antibacterial activity (MIC) Klebsiella pneumoniae Y-1007: < 0.06 µg/mL
[12]
  Antibacterial activity (MIC) Klebsiella pneumoniae Y-1062: 2 µg/mL
[13]
  Antibacterial activity (MIC) Pseudomonas aeruginosa ATCC 27853: 0.5 µg/mL
[14]
  Antibacterial activity (MIC) Pseudomonas aeruginosa S-3779: 0.25 µg/mL
[2]; [17]
  MIC: 2 µg/mL
[2]; [18]
  MIC: 0.5 µg/mL
[2]; [19]
  MIC: 1 µg/mL
[2]; [20]
  MIC: 0.03 µg/mL
[2]; Klebsiella pneumoniae, with VOB at 4 μg/mL, read-out: MIC
  MIC: 1 µg/mL
[2]; [21]
  MIC: 0.03 µg/mL
[3]; Klebsiella pneumoniae, with NAC at 4 μg/mL
  MIC: 0.06 µg/mL
[3]; [22]
  MIC: < 0.015 µg/mL
[4]; [23]
  MIC: 0.5 µg/mL
[4]; [24]
  MIC: < 0.015 µg/mL
[4]; [25]
  MIC: < 0.015 µg/mL
[15]; [16]
  MIC: 8 µg/mL
[15]; with AVI at 4 μg/mL
  MIC: 0.25 µg/mL
[15]; with CVA at 4 μg/mL
  MIC: 4 µg/mL
[15]; with NAC at 4 μg/mL
  MIC: 0.12 µg/mL
[15]; with SBT at 4 μg/mL
  MIC: 4 µg/mL
[15]; with TAZ at 4 μg/mL
  MIC: 4 µg/mL
[15]; with ZID at 4 μg/mL
  MIC: < 0.015 µg/mL
[15]
  antibacterial activity in combination with a β-lactamase inhibitor versus without: higher antibacterial activity

— patent US20220241249A1, “PHARMACEUTICAL COMPOSITION AND KIT CONTAINING NOVEL PENAM DERIVATIVE OR SALT THEREOF AND ONE OR MORE COMPOUNDS SELECTED FROM beta-LACTAMASE INHIBITORY COMPOUND AND ANTIBACTERIAL COMPOUND OR SALTS THEREOF” (priority 2019, published 2022)
